Measurements reported in US20180028543A1, “HYPOLIPIDEMIC COMPOSITION AND USE THEREOF” (priority 2014, published 2018).

Columns and labels:
[1] = test system: hyperlipidemia rats; assay: Hypolipidemic animal experiment: blood lipid levels in high-fat feed rats; format: in vivo, SD rats; conditions: serum, positive drug 1.5 mg/kg intragastric, 4 weeks, X ± S, n = 10
Description: 3. […] From the day of experiment, the blank control group and the model control group were intragastrically administered with normal saline (volume: 10 ml/kg), the administration group was intragastrically administered with corresponding drugs once a day, the body weight was weighed once a week, and the dosage was adjusted according to the body weight. The blank control group was fed with the normal feed, the other groups was fed with high-fat feed. During the experiment, free feeding, free drinking, continuous molding and drug administration for prevention were carried out for 4 weeks.
(§1) 4. Observation indexes: after the last administration, the rats fasted for 12 h without fasting water. The rats were anesthetized with 3% pentobarbital sodium, blood was collected from the abdominal aorta, serum was centrifugally separated, and the serum total cholesterol (TC), triglyceride (TG), high-density lipoprotein cholesterol (HDL-C), low-density lipoprotein cholesterol (LDL-C), alanine aminotransferase (ALT) and aspartate aminotransferase (AST) values were measured.

[2] = test system: hyperlipidemia rats; assay: Effect on liver function (serum ALT, AST) of high-fat feed rats; format: in vivo, SD rats; conditions: positive drug 1.5 mg/Kg-d, 4 weeks, X ± S, n = 10
Excerpt: 1. Experimental materials: 150 healthy SD male and female rats in clean grade, with body weight of (150.2±8.9) g.
2. Feed: general feed, high-fat feed formula: 72.7% of basic feed, 2% of cholesterol, 5% of egg yolk powder, 10% of lard, 0.2% of propylthiouracil, 10% of sucrose and 0.1% of sodium cholate.
3. Grouping and administration of animals: the purchased experimental rats were adaptively fed for 1 week in a lab, original numbers were assigned according to the weighing order, and the rats were randomly divided into a blank control group, a model control group, a pharmaceutical composition (respectively prepared as in Examples 3, 6, 8 and 10, and added with 50 ml of water per 10 g to be dissolved to obtain a solution) low-dose group (5 ml/kg·d), a middle-dose group (10 ml/kg-d), a high-dose group (15 ml/kg·d), a positive drug (simvastatin) control group (1.5 mg/kg, volume: 10 ml/kg) by looking up a random number table, and there were 10 rats in each group. […]
as §1, with “Observation indexes: after the last administration, the rats fasted for 12 h without fasting water.” left out, “measured. […]” for “measured.”

Compound: CCC(C)(C)C(=O)O[C@H]1C[C@@H](C)C=C2C=C[C@H](C)[C@H](CC[C@@H]3C[C@@H](O)CC(=O)O3)[C@H]21 [Positive drug, simvastatin]
- HDL-C [1]: 1.23 ± 0.17 mmol/L
- LDL-C [1]: 1.68 ± 1.91 mmol/L
- TC [1]: 8.42 ± 4.79 mmol/L
- TG [1]: 0.49 ± 0.18 mmol/L
- ALT [2]: 45.85 ± 5.21 U/L
- AST [2]: 22.32 ± 7.56 U/L
